For orientation: IC50 means the concentration that inhibits the measured activity by half.

The values below come from US20230024108A1, “ADENOSINE A2A RECEPTOR ANTAGONISTS” (Teon Therapeutics, Inc., priority 2019, published 2023).

Assay [1] has as its target T1, human A2A AdoR (Homo sapiens, UniProt P29274).
T1 construct: purchased PerkinElmer RBHA2AM400UA
Nature of the assay: Adenosine receptor binding assay, A2A ([3H]-CGS-21680). The following applies: membranes of HEK-293 cells expressing human A2A AdoR; read-out: hA2A IC50. On the procedure:
(§1) Membranes prepared from CHO-K1 cells stably expressing Human AiAdoR (ES-010-M400UA), HEK-293 cells stably expressing human A2A AdoR (RBHA2AM400UA), HEK-293 cells stably expressing human A2B AdoR (ES-013-M400UA) and CHO-K1 cells stably expressing Human A3 AdoR (ES-012-M400UA) were purchased from PerkinElmer (Waltham, Mass., USA) and stored at −80° C. until use. Binding assays are performed using the radioligands. The final concentrations are as follows: [3H]-DPCPX (PerkinElmer, NET974001MC) at 1 nM for A1AdoR; [^3H]-CGS-21680 (PerkinElmer, NET1021250UC) at 6 nM for A2AAdoR, [3H]-DPCPX (PerkinElmer, NET974001MC) at 8 nM for A2BAdoR; [^3H]-HEMADO (ARC, Cat: ART1456) at 1 nM for A3AdoR. Testing compounds are diluted with DMSO to make 8-point 4-fold serial dilution. Nonspecific binding (Low control: LC) and total binding (High control: HC) are determined in the presence or absence of saturated cold ligand. Specific binding is calculated by subtracting nonspecific binding from total binding. All assays are performed in a final volume of 200 μl containing 1 μl of the test compound in DMSO, 100 μl of membrane preparation, and 99 μl of the radioligand in assay buffer (A1AdoR: 25 mM HEPES pH 7.4, 5 mM MgCl2, 1 mM CaCl2), 100 mM NaCl; A2AAdoR: 50 mM Tris HCl pH 7.4, 10 mM MgCl2, 1 mM EDTA; A2BAdoR: 50 mM HEPES pH 7.0, 5 mM MgCl2, 1 mM EDTA; A3AdoR: 25 HEPES pH 7.4, 10 mM MgCl2, 1 mM CaCl2), 0.5% BSA). The incubation is performed at room temperature with shaking at 300 rpm for 1 hour for A1AdoR, A2BAdoR and A3AdoR and 2 hours for A2AAdoR. After the incubation, the assay mixture is filtered through 96 GF/C filter plates (Perkin Elmer #6005174) using Perkin Elmer Filtermate Harvester, and then washed four times with ice-cold washing buffer (A1AdoR: 25 mM HEPES pH 7.4, 5 mM MgCl2, 1 mM CaCl2), 100 mM NaCl; A2AAdoR: 50 mM Tris HCl pH 7.4, 154 mM NaCl; A2BAdoR: 50 mM HEPES pH 6.5, 5 mM MgCl2, 1 mM EDTA, 0.2% BSA; A3AdoR: 50 mM Tris HCl pH 7.4). The filters are dried for 1 hour at 50° C. and [^3H] trapped on filter counted for radioactivity in Perkin Elmer Microscint 20 cocktail (#6013329) using Perkin Elmer MicroBeta2 Reader. The results are expressed as a percent inhibition of the control radioligand specific binding calculated using the following equation: % Inhibition=(1−(Assay well-Average_LC)/(Average_HC−Average_LC))×100%. Data are analyzed and IC50 is calculated using GraphPad Prism 5 and the model “log(inhibitor) vs. response—Variable slope”. The binding affinity of the compounds is determined by using the Cheng and Prusoff equation Ki=IC50/(1+[radioligand]/Kd).

The target in assay [2] is T2, A1AdoR (Homo sapiens, UniProt P30542).
T2 construct: purchased PerkinElmer ES-010-M400UA
T2 sequence (P30542 1-326): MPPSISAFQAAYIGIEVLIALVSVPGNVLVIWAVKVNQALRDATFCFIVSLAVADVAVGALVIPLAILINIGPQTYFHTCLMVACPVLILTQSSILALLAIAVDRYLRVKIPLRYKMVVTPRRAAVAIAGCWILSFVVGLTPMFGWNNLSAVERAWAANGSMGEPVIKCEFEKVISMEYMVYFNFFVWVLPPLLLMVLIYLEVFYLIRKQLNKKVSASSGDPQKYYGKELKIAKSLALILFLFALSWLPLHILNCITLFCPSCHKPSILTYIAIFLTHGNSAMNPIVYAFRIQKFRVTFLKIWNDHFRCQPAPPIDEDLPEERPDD
Nature of the assay: Adenosine receptor binding assay, A1 ([3H]-DPCPX). The following applies: ratio A1 vs A2A binding. How it is done:
as §1

T1 sequence (P29274 whole entry): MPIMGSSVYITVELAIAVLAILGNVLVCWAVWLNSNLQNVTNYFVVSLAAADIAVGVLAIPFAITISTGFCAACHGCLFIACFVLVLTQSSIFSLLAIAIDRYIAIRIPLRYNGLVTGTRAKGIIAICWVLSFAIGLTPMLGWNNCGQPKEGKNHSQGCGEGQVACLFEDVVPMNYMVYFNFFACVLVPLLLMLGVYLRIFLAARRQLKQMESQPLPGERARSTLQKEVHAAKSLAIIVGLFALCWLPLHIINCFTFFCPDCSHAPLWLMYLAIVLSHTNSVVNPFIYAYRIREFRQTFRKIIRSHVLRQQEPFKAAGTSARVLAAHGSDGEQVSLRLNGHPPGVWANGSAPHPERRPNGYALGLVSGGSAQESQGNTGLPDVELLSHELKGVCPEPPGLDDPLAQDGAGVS

Turning to `CC#Cc1nc2c3ncn(CCN4CCc5ncc(C6COC6)cc5C4)c3nc(N)n2n1`, the IC50 in assay [1] lay within 20 to 100 nM. Further, in assay [2], the “A1/A2A Selectivity” value was “b (greater than 100 but less than or equal to 1000)”.
On to `CC#Cc1nc2c3ncn(CCN4CCN(c5cc(-n6cccn6)ccc5F)CC4)c3nc(N)n2n1`, for which the IC50 in assay [1] is ≤ 20 nM. For the same compound, in assay [2], the “A1/A2A Selectivity” value is reported as “a (greater than 1000)”.
Turning to `CC#Cc1nc2c3cc(C#N)n(CCN4CCN(c5ccc6onc(C)c6c5F)CC4)c3nc(N)n2n1`, the IC50 in assay [1] was ≤ 20 nM. For the same compound, the “A1/A2A Selectivity” value in assay [2] is given as “a (greater than 1000)”.
With `Cc1noc2cc(F)c(N3CCN(CCn4c(C(=O)O)c(C)c5c4nc(N)n4nc(-c6ccccn6)nc54)CC3)cc12`, the IC50 in assay [1] is ≤ 20 nM. Further, in assay [2], the “A1/A2A Selectivity” value is on record as “b (greater than 100 but less than or equal to 1000)”.
For `CNC(=O)c1c(Cl)c2c(nc(N)n3nc(-c4ccccn4)nc23)n1CCN1CCN(c2cc(-c3ncco3)ccc2F)CC1` the same measures were ≤ 20 nM and “a (greater than 1000)”.
On the same counts, the results for `NC(=O)c1c(Cl)c2c(nc(N)n3nc(-c4ccccn4)nc23)n1CCN1CCN(c2ccc(F)cc2F)CC1` are ≤ 20 nM and “c (greater than 0 but less than or equal to 100)”.
Take `Cc1noc2cc(F)c(N3CCCN(CCn4c(C(N)=O)c(Cl)c5c4nc(N)n4nc(-c6ccccn6)nc54)CC3)cc12`: the IC50 in assay [1] is ≤ 20 nM. Further, the “A1/A2A Selectivity” value in assay [2] is listed as “b (greater than 100 but less than or equal to 1000)”.
For the compound `Nc1nc2c(c(Cl)c(C(=O)NC3CC3)n2CCN2CCN(c3cc(-c4ncco4)ccc3F)CC2)c2nc(-c3ccccn3)nn12`, in assay [1], the IC50 is ≤ 20 nM. Also, in assay [2], the “A1/A2A Selectivity” value is on record as “a (greater than 1000)”.
As for `Cc1c(C(=O)O)n(CCN2CCN(c3ccncc3)CC2)c2nc(N)n3nc(-c4ccccn4)nc3c12`, in assay [1], the IC50 lay within 20 to 100 nM. For the same compound, the “A1/A2A Selectivity” value in assay [2] is listed as “c (greater than 0 but less than or equal to 100)”.
As to `CC#Cc1nc2c3ncn(CCN4CCc5ncc(-c6nccs6)cc5C4)c3nc(N)n2n1`, the IC50 in assay [1] is ≤ 20 nM. The “A1/A2A Selectivity” value in assay [2] is listed as “c (greater than 0 but less than or equal to 100)”.
On the same counts, the results for `Nc1nc2c(ncn2CCN2CCc3ncc(-c4nccs4)cc3C2)c2nc(-c3ccccn3)nn12` are ≤ 20 nM and “c (greater than 0 but less than or equal to 100)”.
`CC#Cc1nc2c3ncn(CCN4CCN(c5ccc(OC(C)(C)C(=O)OC)cc5F)CC4)c3nc(N)n2n1`: the IC50 in assay [1] was ≤ 20 nM. Besides, the “A1/A2A Selectivity” value in assay [2] is listed as “a (greater than 1000)”.
For “2-(4-(4-(2-(5-amino-8-(methoxycarbonyl)-9-methyl-2-(pyridin-2-yl)-7H-pyrrolo[3,2-e][1,2,4]triazolo[1,5-c]pyrimidin-7-yl)ethyl)piperazin-1-yl)phenoxy)acetic acid”, the IC50 in assay [1] is ≤ 20 nM. Also, the “A1/A2A Selectivity” value in assay [2] is “b (greater than 100 but less than or equal to 1000)”.
On the same counts, the results for `CC#Cc1nc2c3ncn(CCN4CCN(c5ccc(OC(C)(C)C(=O)O)cc5)CC4)c3nc(N)n2n1` [2-(4-(4-(2-(5-amino-8-(prop-1-yn-1-yl)-3H-[1,2,4]triazolo[5,1-i]purin-3-yl)ethyl)piperazin-1-yl)phenoxy)-2-methylpropanoic acid] are 20 to 100 nM and “b (greater than 100 but less than or equal to 1000)”.
For the compound `CC(C)(Oc1ccc(N2CCN(CCn3cnc4c3nc(N)n3nc(-c5ccccn5)nc43)CC2)c(F)c1)C(=O)O` [2-(4-(4-(2-(5-amino-8-(pyridin-2-yl)-3H-[1,2,4]triazolo[5,1-i]purin-3-yl)ethyl)piperazin-1-yl)-3-fluorophenoxy)-2-methylpropanoic acid], the IC50 in assay [1] is ≤ 20 nM. Besides, the “A1/A2A Selectivity” value in assay [2] is reported as “b (greater than 100 but less than or equal to 1000)”.
For the compound `NC(=O)c1c(Cl)c2c(nc(N)n3nc(-c4ccccn4)nc23)n1CCN1CCN(c2ccc(OCC(=O)O)cc2)CC1` [2-(4-(4-(2-(5-amino-8-carbamoyl-9-chloro-2-(pyridin-2-yl)-7H-pyrrolo[3,2-e][1,2,4]triazolo[1,5-c]pyrimidin-7-yl)ethyl)piperazin-1-yl)phenoxy)acetic acid], the half-inhibitory concentration (IC50) in assay [1] is ≤ 20 nM. For the same compound, the “A1/A2A Selectivity” value in assay [2] was “b (greater than 100 but less than or equal to 1000)”.
For the compound `Nc1nc2c(ncn2CCN2CCc3ncc(C4COC4)cc3C2)c2nc(-c3ccccn3)nn12` [3-(2-(3-(oxetan-3-yl)-7,8-dihydro-1,6-naphthyridin-6(5H)-yl)ethyl)-8-(pyridin-2-yl)-3H-[1,2,4]triazolo[5,1-i]purin-5-amine], the IC50 in assay [1] is 20 to 100 nM. Moreover, the “A1/A2A Selectivity” value in assay [2] is given as “c (greater than 0 but less than or equal to 100)”.
For `Nc1nc2c(ncn2CCN2CCN(c3cc(-n4cccn4)ccc3F)CC2)c2nc(-c3ccccn3)nn12` [3-(2-(4-(2-fluoro-5-(1H-pyrazol-1-yl)phenyl)piperazin-1-yl)ethyl)-8-(pyridin-2-yl)-3H-[1,2,4]triazolo[5,1-i]purin-5-amine], the IC50 in assay [1] is ≤ 20 nM. Moreover, in assay [2], the “A1/A2A Selectivity” value was “b (greater than 100 but less than or equal to 1000)”.
For the compound `Nc1nc2c(ncn2CCN2CCN(c3cc(-c4ncco4)ccc3F)CC2)c2nc(-c3ccccn3)nn12` [3-(2-(4-(2-fluoro-5-(oxazol-2-yl)phenyl)piperazin-1-yl)ethyl)-8-(pyridin-2-yl)-3H-[1,2,4]triazolo[5,1-i]purin-5-amine], the IC50 in assay [1] is ≤ 20 nM. Also, in assay [2], the “A1/A2A Selectivity” value is “b (greater than 100 but less than or equal to 1000)”.
With `CC#Cc1nc2c3ncn(CCN4CCN(c5cc6c(C)noc6cc5F)CC4)c3nc(N)n2n1` [3-(2-(4-(6-fluoro-3-methylbenzo[d]isoxazol-5-yl)piperazin-1-yl)ethyl)-8-(prop-1-yn-1-yl)-3H-[1,2,4]triazolo[5,1-i]purin-5-amine], the IC50 in assay [1] is ≤ 20 nM. In addition, the “A1/A2A Selectivity” value in assay [2] was “a (greater than 1000)”.
Consider `Cc1c(C(N)=O)n(CCN2CCN(c3ccc(F)cc3F)CC2)c2nc(N)n3nc(-c4ccccn4)nc3c12` [5-amino-7-(2-(4-(2,4-difluorophenyl)piperazin-1-yl)ethyl)-9-methyl-2-(pyridin-2-yl)-7H-pyrrolo[3,2-e][1,2,4]triazolo[1,5-c]pyrimidine-8-carboxamide], for which, in assay [1], the concentration for half-maximal inhibition (IC50) is ≤ 20 nM. In addition, the “A1/A2A Selectivity” value in assay [2] was “b (greater than 100 but less than or equal to 1000)”.
For `Cc1c(C(=O)O)n(CCN2CCN(c3ccc(F)cc3F)CC2)c2nc(N)n3nc(-c4ccccn4)nc3c12` [5-amino-7-(2-(4-(2,4-difluorophenyl)piperazin-1-yl)ethyl)-9-methyl-2-(pyridin-2-yl)-7H-pyrrolo[3,2-e][1,2,4]triazolo[1,5-c]pyrimidine-8-carboxylic acid], in assay [1], the concentration for half-maximal inhibition (IC50) was ≤ 20 nM. Also, the “A1/A2A Selectivity” value in assay [2] was “b (greater than 100 but less than or equal to 1000)”.
`Cc1c(C(=O)O)n(CCN2CCCN(c3cc(-c4ncco4)ccc3F)CC2)c2nc(N)n3nc(-c4ccccn4)nc3c12` [5-amino-7-(2-(4-(2-fluoro-5-(oxazol-2-yl)phenyl)-1,4-diazepan-1-yl)ethyl)-9-methyl-2-(pyridin-2-yl)-7H-pyrrolo[3,2-e][1,2,4]triazolo[1,5-c]pyrimidine-8-carboxylic acid]: the IC50 in assay [1] was 20 to 100 nM. Also, the “A1/A2A Selectivity” value in assay [2] is “c (greater than 0 but less than or equal to 100)”.
